In patent US7807676B2, “Diketo-Piperazine and Piperidine derivatives as antiviral agents” (priority 2006, dated 2010) one finds EC50 data, which are given here for 57 compounds.

The subject of the assay is HIV-1 single-round infectious reporter virus. The assay can be described thus: Single-round infectious HIV-1 luciferase reporter virus infection of HeLa CD4 cells (antiviral EC50). It counts as cell-based. The conditions noted are these: Human immunodeficiency virus 1, HeLa, read-out: EC50 Group from Table 3. An outline of the steps:
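Compound (≤10 μM final, 10 concentrations) was added to HeLa CD4 cells together with luciferase-reporter HIV-1 pseudovirus (nef replaced by luciferase, envelope supplied in trans) at MOI ~0.01. Cells were lysed 72 h post-infection at 37 °C for luminescence; percent inhibition versus untreated infection, fitted four-parameter logistic for EC50.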
(In general: In a reporter assay the amount or activity of a reporter protein is the signal.)

Counter-ions that a name gives are not always drawn.

As for `O=C(C(=O)N1CCN(c2cn[nH]c2-c2ccccn2)CC1)c1c[nH]c2c(-n3ccnn3)ncc(F)c12` [E-16, 1-(4-fluoro-7-(1H-1,2,3-triazol-1-yl)-1H-pyrrolo[2,3-c]pyridinyl-3-yl)-2-(4-(3-(pyridin-2-yl)-1H-pyrazol-4-yl)piperazin-1-yl)ethane-1,2-dione], the EC50 (as a rule, the concentration giving half of the maximal effect) is less than 0.5 µM. For the compound `COc1cnc(-c2ccc(N3CCN(C(=O)OC(C)C)CC3)cc2)c2[nH]cc(C(=O)C(=O)N3CCN(c4nnnn4-c4ccccn4)CC3)c12` [B-83], the concentration for a half-maximal effect (EC50) is less than 0.5 µM.

Consider `COc1cnc(-n2cnc(C)n2)c2[nH]cc(C(=O)C(=O)N3CCN(c4nonc4-c4ccccc4)CC3)c12` [G-1a], for which the concentration for a half-maximal effect (EC50) was less than 0.5 µM. As for `O=C(C(=O)N1CCN(c2nccn2-c2ccccc2)CC1)c1c[nH]c2c(-n3ccnn3)ncc(F)c12` [A-49], the figure is less than 0.5 µM; as for `O=C(C(=O)N1CCN(c2[nH]nnc2-c2ccccc2)CC1)c1c[nH]c2c(-n3ccnn3)ncc(F)c12` [G-8a], less than 0.5 µM. As for `COc1cnc(-c2ccc(F)nc2)c2[nH]cc(C(=O)C(=O)N3CCN(c4nnnn4-c4ccccn4)CC3)c12` [H-13], the 50% effective concentration (EC50) is less than 0.5 µM. As for `O=C(C(=O)N1C[C@@H]2C[C@H]1CN2c1nnnn1-c1ccccc1)c1c[nH]c2c(-n3ccnn3)ncc(F)c12` [A-74], the figure is greater than 0.5 µM; as for `COc1cnc(-n2cnc(C)n2)c2[nH]cc(C(=O)C(=O)N3CCN(c4nsnc4Cl)CC3)c12` [D-20], less than 0.5 µM.

Take `CN(C)CCCN(C)C(=O)c1cc(-c2ncc(F)c3c(C(=O)C(=O)N4CCN(c5nnnn5-c5ccccc5)CC4)c[nH]c23)n[nH]1` [B-38]: the EC50 is less than 0.5 µM. As for `O=C(C(=O)N1CCN(c2nn[nH]c2-c2nccs2)CC1)c1c[nH]c2c(-n3ccnn3)ncc(F)c12` [G-25a], the EC50 is less than 0.5 µM.

As for `COc1cnc(-n2cnc(C)n2)c2[nH]cc(C(=O)C(=O)N3CCN(c4nccnc4OC(C)C)CC3)c12` [D-49], the concentration for a half-maximal effect (EC50) was less than 0.5 µM. The value for `O=C(C(=O)N1CCN(c2cn(Cc3ccccn3)nc2-c2ccccc2)CC1)c1c[nH]c2c(-n3ccnn3)ncc(F)c12` [G-7b] was less than 0.5 µM. As for `COc1cnc(-c2cc(CO)[nH]n2)c2[nH]cc(C(=O)C(=O)N3CCN(c4nnnn4-c4ccccc4)CC3)c12` [B-22, 1-(7-(5-(hydroxymethyl)-1H-pyrazol-3-yl)-4-methoxy-1H-pyrrolo[2,3-c]pyridin-3-yl)-2-(4-(1-phenyl-1H-tetrazol-5-yl)piperazin-1-yl)ethane-1,2-dione], the figure is less than 0.5 µM; as for `COc1cnc(-n2cnc(C)n2)c2[nH]cc(C(=O)C(=O)N3CCN(c4nc5ccccc5n4-c4ccccc4)CC3)c12` [A-38], less than 0.5 µM. As for `O=C(C(=O)N1CCN(c2ncccc2-c2nc3ccccc3s2)CC1)c1c[nH]c2c(-n3ccnn3)ncc(F)c12` [D-31], the figure is greater than 0.5 µM; as for `COc1cnc(-c2cc(C(=O)NCCCN3CCN(C)CC3)[nH]n2)c2[nH]cc(C(=O)C(=O)N3CCN(c4nnnn4-c4ccccc4)CC3)c12` [B-10, 3-(4-methoxy-3-(2-oxo-2-(4-(1-phenyl-1H-tetrazol-5-yl)piperazin-1-yl)acetyl)-1H-pyrrolo[2,3-c]pyridin-7-yl)-N-(3-(4-methylpiperazin-1-yl)propyl)-1H-pyrazole-5-carboxamide.TFA], less than 0.5 µM; as for `C[C@H]1CN(c2nnnn2-c2ccccc2)CCN1C(=O)C(=O)c1c[nH]c2c(-n3ccnn3)ncc(F)c12` [A-15], less than 0.5 µM.

Turning to `COc1cnc(-c2ncc(OC)c3c(C(=O)C(=O)N4CCN(c5nnnn5-c5ccccc5)CC4)c[nH]c23)c2[nH]ccc12` [A-64], the concentration giving a half-maximal response (EC50) was less than 0.5 µM.

`Nc1ccnn1-c1ncc(F)c2c(C(=O)C(=O)N3CCN(c4nnnn4-c4ccccc4)CC3)c[nH]c12` [B-5, 1-(7-(5-amino-1H-pyrazol-1-yl)-4-fluoro-1H-pyrrolo[2,3-c]pyridin-3-yl)-2-(4-(1-phenyl-1H-tetrazol-5-yl)piperazin-1-yl)ethane-1,2-dione]: the concentration for a half-maximal effect (EC50) is less than 0.5 µM. Take `COc1cnc(Nc2ccncn2)c2[nH]cc(C(=O)C(=O)N3CCN(c4nnnn4-c4ccccn4)CC3)c12` [B-92]: the EC50 was less than 0.5 µM.

For `COc1cnc(-c2cc(C(C)(C)O)[nH]n2)c2[nH]cc(C(=O)C(=O)N3CCN(c4nnnn4-c4ccccn4)CC3)c12` [B-68], the 50% effective concentration (EC50) is less than 0.5 µM. For `COc1cnc(-n2cnc(C)n2)c2[nH]cc(C(=O)C(=O)N3CCN(c4nnnn4-c4ncco4)CC3)c12` [E-7], the EC50 is less than 0.5 µM. As for `CCOC(=O)CCCCCC(=O)c1cccnc1N1CCN(C(=O)C(=O)c2c[nH]c3c(-n4ccnn4)ncc(F)c23)CC1` [D-43], the figure is greater than 0.5 µM; as for `Cc1cc(NC(=O)c2cccnc2N2CCN(C(=O)C(=O)c3c[nH]c4c(-n5ccnn5)ncc(F)c34)CC2)no1` [D-39], greater than 0.5 µM; as for `COc1cnc(-n2cnc(C)n2)c2[nH]cc(C(=O)C(=O)N3CCN(c4c[nH]nc4-c4ccccc4)CC3)c12` [G-5b], less than 0.5 µM. The value for `Cc1nc(N2CCN(C(=O)C(=O)c3c[nH]c4c(-n5ccnn5)ncc(F)c34)[C@H](C)C2)c2c(-c3ccccc3)csc2n1` [D-26] was greater than 0.5 µM; that for `CCN(C)C(=O)c1cc(-c2ncc(F)c3c(C(=O)C(=O)N4CCN(c5nnnn5-c5ccccc5)CC4)c[nH]c23)n[nH]1` [F-9] was less than 0.5 µM. In the case of `CCc1ncn(-c2ncc(OC)c3c(C(=O)C(=O)N4CCN(c5nnnn5-c5ccccn5)CC4)c[nH]c23)n1` [A-69], the concentration giving a half-maximal response (EC50) is less than 0.5 µM. The value for `N#CCCCC(=O)c1cccnc1N1CCN(C(=O)C(=O)c2c[nH]c3c(-n4ccnn4)ncc(F)c23)CC1` [D-46] was greater than 0.5 µM.

`COc1cnc(-n2cnc(C)n2)c2[nH]cc(C(=O)C(=O)N3CCN(c4ncccc4N4CC(C)(C)C4=O)C[C@H]3C)c12` [D-12]: the EC50 was greater than 0.5 µM. As for `O=C(C(=O)N1CCN(c2ccccc2-c2ccccc2)CC1)c1c[nH]c2c(-n3ccnn3)ncc(F)c12` [A-4], the half-maximal effective concentration (EC50) was less than 0.5 µM. As for `C[C@@H]1CN(c2ncccc2C(=O)N2CCOCC2)CCN1C(=O)C(=O)c1c[nH]c2c(-n3ccnn3)ncc(F)c12` [D-29], the EC50 was greater than 0.5 µM. As to `COc1cnc(C(=O)NC2CC2)c2[nH]cc(C(=O)C(=O)N3CCN(c4nnnn4-c4ccccn4)CC3)c12` [B-66], the half-maximal effective concentration (EC50) was less than 0.5 µM. Turning to `CN(C)CCCNC(=O)c1cccnc1N1CCN(C(=O)C(=O)c2c[nH]c3c(-n4ccnn4)ncc(F)c23)CC1` [D-37], the EC50 was greater than 0.5 µM.

`COc1cnc(-c2ccc(N3CCN(C(=O)NC(C)C)CC3)cc2)c2[nH]cc(C(=O)C(=O)N3CCN(c4nnnn4-c4ccccn4)CC3)c12` [B-87]: the EC50 was less than 0.5 µM. Turning to `C[C@H]1CN(C(=O)C(=O)c2c[nH]c3c(-n4ccnn4)ncc(F)c23)CCN1c1nnnn1-c1ccccc1` [A-61], the EC50 was less than 0.5 µM. As for `COc1ccncc1-c1ncc(OC)c2c(C(=O)C(=O)N3CCN(c4nnnn4-c4ccccn4)CC3)c[nH]c12` [H-6], the figure is less than 0.5 µM; as for `O=C(C(=O)N1CCN(c2ncccc2C(=O)N2CCOCC2)CC1)c1c[nH]c2c(-n3ccnn3)ncc(F)c12` [D-38], greater than 0.5 µM; as for `O=C(C(=O)N1CCN(c2ccc(-c3ccccc3)cc2)CC1)c1c[nH]c2c(-n3ccnn3)ncc(F)c12` [A-2], greater than 0.5 µM.

With `O=C(c1nccs1)c1cccnc1N1CCN(C(=O)C(=O)c2c[nH]c3c(-n4ccnn4)ncc(F)c23)CC1` [D-33], the EC50 was less than 0.5 µM.

In the case of `COc1cnc(-n2cnc(C)n2)c2[nH]cc(C(=O)C(=O)N3CCN(c4ncccc4-c4nc5ccccc5s4)CC3)c12` [D-15], the EC50 is less than 0.5 µM. On to `COc1cnc(-n2cnc(C)n2)c2[nH]cc(C(=O)C(=O)N3CCN(c4ncccc4I)CC3)c12` [D-2], for which the EC50 is less than 0.5 µM.

On to `Cc1cc(N2CCN(C(=O)C(=O)c3c[nH]c4c(-n5ccnn5)ncc(F)c34)CC2)nc(-c2ccccc2O)n1` [A-35], for which the half-maximal effective concentration (EC50) was less than 0.5 µM. The value for `COc1cnc(-n2cnc(C)n2)c2[nH]cc(C(=O)C(=O)N3CCN(c4nn(C)nc4-c4ccccc4)CC3)c12` [G-23] was less than 0.5 µM; that for `CCOc1ncc(-c2ncc(OC)c3c(C(=O)C(=O)N4CCN(c5nnnn5-c5ccccn5)CC4)c[nH]c23)s1` [B-89] was less than 0.5 µM; that for `CNCc1nc(-c2ncc(OC)c3c(C(=O)C(=O)N4CCN(c5nnnn5-c5ccccc5)CC4)c[nH]c23)cs1` [B-59] was less than 0.5 µM.

On to `O=C(C(=O)N1CCN(c2cncnc2-c2ccccc2)CC1)c1c[nH]c2c(-n3ccnn3)ncc(F)c12` [G-19a], for which the EC50 was less than 0.5 µM. As for `CCOC(=O)c1cc(-c2ncc(F)c3c(C(=O)C(=O)N4CCN(c5nnnn5-c5ccccc5)CC4)c[nH]c23)n[nH]1` [B-33], the figure is less than 0.5 µM. As for `O=C(C(=O)N1CCC(c2nc(-c3cccnc3)no2)CC1)c1c[nH]c2c(-n3ccnn3)ncc(F)c12` [A-34], the concentration for a half-maximal effect (EC50) is greater than 0.5 µM. The value for `O=C(C(=O)N1CCN(c2nnnn2-c2ccccc2)CC1)c1c[nH]c2c(-c3cc(C(=O)N4CCC[C@H]4CO)[nH]n3)ncc(F)c12` [F-6] was less than 0.5 µM; that for `COc1cnc(-n2cnc(C)n2)c2[nH]cc(C(=O)C(=O)N3CCN(c4cnn(C)c4-c4ccccc4)CC3)c12` [G-13b] was less than 0.5 µM; that for `COc1cnc(-n2cnc(C)n2)c2[nH]cc(C(=O)C(=O)N3CCN(c4cncnc4-c4ccccc4)CC3)c12` [G-19b] was less than 0.5 µM. Take `CCOC(=O)N1CCN(c2ccc(-c3ncc(OC)c4c(C(=O)C(=O)N5CCN(c6nnnn6-c6ccccn6)CC5)c[nH]c34)cc2)CC1` [B-85]: the EC50 is less than 0.5 µM. For `COc1cnc(-n2cnc(C)n2)c2[nH]cc(C(=O)C(=O)N3CCN(c4ncccc4C#N)CC3)c12` [D-1], the 50% effective concentration (EC50) was less than 0.5 µM. The value for `COc1ccc(-c2ncc(OC)c3c(C(=O)C(=O)N4CCN(c5nnnn5-c5ccccn5)CC4)c[nH]c23)cn1` [H-10] was less than 0.5 µM; that for `COc1cnc(-n2cnc(C)n2)c2[nH]cc(C(=O)C(=O)N3CCN(c4nc(S(C)(=O)=O)nn4-c4ccccc4)CC3)c12` [G-28b] was less than 0.5 µM. In the case of `CCOC(=O)c1cccnc1N1CCN(C(=O)C(=O)c2c[nH]c3c(-n4ccnn4)ncc(F)c23)CC1` [D-24], the concentration for a half-maximal effect (EC50) is less than 0.5 µM.
